From patent US4428936A, “Antibacterial composition for medical use” (Toyama Chemical Co., Ltd., priority 1978, dated 1984)

Columns and labels:
Escherichia coli TK-3 [1] = experiment: Growth-inhibition test on clinically isolated strain (agar, about 10^8 cells/ml); format: cell-based; design: key: (+) means that the test bacterium grew; (-) means that the test bacterium did not grow; details: Methicillin sodium: 3200,1600,800,400,200,100,50,25,12.5,0 μg/ml, 18 hours, 37° C
Experimental: (§1) Heart Infusion agar containing a prescribed amount of Methicillin sodium or T-1551 Na was inoculated with the test bacterium at a rate of about 10^8 cells/ml. After incubation for 18 hours at 37° C., the growth of the test bacterium was inspected.

[2] = system: Klebsiella pneumoniae Y-4; experiment: as above; format: cell-based; design: key: (+) means that the test bacterium grew; (-) means that the test bacterium did not grow; details: Methicillin sodium: 3200,1600,800,400,200,100,50,25,12.5,0 μg/ml, 18 hours, 37° C
Experimental: as §1

[3] = system: Pseudomonas aeruginosa S-111; experiment: as above; format: cell-based; design: key: (+) means that the test bacterium grew; (-) means that the test bacterium did not grow; details: Methicillin sodium 3200,1600,800,400,200,100,50,25,12.5,0 μg/ml, 18 hours, 37° C
Experimental: as §1

Escherichia coli GN 6299 = experiment: Growth-inhibition test with potassium clavulanate; format: cell-based; design: key: (+) means that the test bacterium grew; (-) means that the test bacterium did not grow; details: potassium clavulanate by line b171,b173-b182: 100,(unlabelled),25,(unlabelled),6.25,(unlabelled),1.6,(unlabelled),0.4,(unlabelled),0 μg/ml
Experimental: as §1
(§2) The same operation as in Test Example 1 was repeated, except that the Methicillin sodium was replaced by potassium clavulanate and the test bacteria were replaced by those shown in Tables 6, 7 and 8, to obtain the results shown in Tables 6, 7 and 8.

[4] = system: Klebsiella pneumoniae GN 69; experiment: Growth-inhibition test with potassium clavulanate; format: cell-based; design: key: (+) means that the test bacterium grew; (-) means that the test bacterium did not grow; details: potassium clavulanate 100,25,6.25,1.6,0.4,0 μg/ml
Experimental: as §1, §2

[5] = system: Pseudomonas aeruginosa GN 3345; experiment: Growth-inhibition test with potassium clavulanate; format: cell-based; design: key: (+) means that the test bacterium grew; (-) means that the test bacterium did not grow; details: potassium clavulanate by line b219-b229: 100,(unlabelled),25,(unlabelled),12.5,(unlabelled),3.1,(unlabelled),0.4,(unlabelled),0 μg/ml
Experimental: as §1, §2

Escherichia coli TK-3 [6] = experiment: Minimum inhibitory concentration; format: cell-based; details: TK3; Escherichia coli TK-3 strain
Experimental: (§3) The minimum inhibitory concentration of T-1551 Na or Methicillin sodium against Escherichia coli TK-3 strain or Kleosiella pneumoniae Y-4 strain was greater than 800 μg/ml in each case.

[7] = system: Klebsiella pneumoniae Y-4; experiment: Minimum inhibitory concentration; format: cell-based; details: Y4; Klebsiella pneumoniae Y-4 strain
Experimental: as §3

K. pneumoniae Y-4 = experiment: Effect of combined use on experimental infection in mice (protection); format: in vivo, mice (ICR strain) infected with K. pneumoniae; details: challenge dose 5.7 × 10^7 cells/mouse, peritoneal; subcutaneous administration one and two hours after inoculation
Source text: (§4) Male mice (5 mice per group) of the ICR strain, 4 weeks of age, were peritoneally inoculated with the prescribed number of pathogenic bacteria suspended in 5% mucin. After one hour and two hours following the inoculation, test preparations shown in Table 5 were subcuataneously administered to examine the protection effect.

K. pneumoniae Y-53 = experiment: as above; format: in vivo, mice (ICR strain) infected with K. pneumoniae; details: challenge dose 1.0 × 10^7 cells/mouse, peritoneal; subcutaneous administration one and two hours after inoculation
Source text: as §4

[8] = T-1551 Na unlabelled column between 12.5 and 3.1 μg/ml
[9] = T-1551 Na unlabelled column between 50 and 12.5 μg/ml
[10] = T-1551 Na unlabelled column between 200 and 50 μg/ml
[11] = T-1551 Na unlabelled column between 800 and 200 μg/ml

## CCN1CCN(C(=O)N[C@@H](C(=O)N[C@@H]2C(=O)N3C(C(=O)O)=C(CSc4nnnn4C)CS[C@H]23)c2ccc(O)cc2)C(=O)C1=O [T-1551 Na, sodium 7-[D(-)-α-(4-ethyl-2,3-dioxo-1-piperazinylcarbonylamino)-p-hydroxyphenylacetamide]-3-[5-(1-methyl-1,2,3,4-tetrazolyl)thiomethyl]-Δ^3-cephem-4-carboxylate]
Escherichia coli TK-3 [1]; T-1551 Na 0.78 μg/ml
  growth of the test bacterium: +
Escherichia coli TK-3 [1]; T-1551 Na 1.56 μg/ml
  growth of the test bacterium: +
Escherichia coli TK-3 [1]; T-1551 Na 3.13 μg/ml
  growth of the test bacterium: +
Escherichia coli TK-3 [1]; T-1551 Na 6.25 μg/ml
  growth of the test bacterium: +
Escherichia coli TK-3 [1]; T-1551 Na 12.5 μg/ml
  growth of the test bacterium: +
Escherichia coli TK-3 [1]; T-1551 Na 25 μg/ml
  growth of the test bacterium: +
Escherichia coli TK-3 [1]; T-1551 Na 50 μg/ml
  growth of the test bacterium: +
Escherichia coli TK-3 [1]; T-1551 Na 100 μg/ml
  growth of the test bacterium: +
Escherichia coli TK-3 [1]; T-1551 Na 200 μg/ml
  growth of the test bacterium: +
[2]; T-1551 Na 0.78 μg/ml
  growth of the test bacterium: +
[2]; T-1551 Na 1.56 μg/ml
  growth of the test bacterium: +
[2]; T-1551 Na 3.13 μg/ml
  growth of the test bacterium: +
[2]; T-1551 Na 6.25 μg/ml
  growth of the test bacterium: +
[2]; T-1551 Na 12.5 μg/ml
  growth of the test bacterium: +
[2]; T-1551 Na 25 μg/ml
  growth of the test bacterium: +
[2]; T-1551 Na 50 μg/ml
  growth of the test bacterium: +
[2]; T-1551 Na 100 μg/ml
  growth of the test bacterium: +
[2]; T-1551 Na 200 μg/ml
  growth of the test bacterium: +
[3]; T-1551 Na 0.78 μg/ml
  growth of the test bacterium: +
[3]; T-1551 Na 1.56 μg/ml
  growth of the test bacterium: +
[3]; T-1551 Na 3.13 μg/ml
  growth of the test bacterium: +
[3]; T-1551 Na 6.25 μg/ml
  growth of the test bacterium: +
[3]; T-1551 Na 12.5 μg/ml
  growth of the test bacterium: +
[3]; T-1551 Na 25 μg/ml
  growth of the test bacterium: +
[3]; T-1551 Na 50 μg/ml
  growth of the test bacterium: +
[3]; T-1551 Na 100 μg/ml
  growth of the test bacterium: +
[3]; T-1551 Na 200 μg/ml
  growth of the test bacterium: +
Escherichia coli GN 6299; T-1551 Na 0.2 μg/ml
  growth of the test bacterium: +
Escherichia coli GN 6299; T-1551 Na 0.8 μg/ml
  growth of the test bacterium: +
Escherichia coli GN 6299; T-1551 Na 3.1 μg/ml
  growth of the test bacterium: +
Escherichia coli GN 6299; T-1551 Na 12.5 μg/ml
  growth of the test bacterium: +
Escherichia coli GN 6299; T-1551 Na 50 μg/ml
  growth of the test bacterium: +
Escherichia coli GN 6299; T-1551 Na 200 μg/ml
  growth of the test bacterium: +
Escherichia coli GN 6299; T-1551 Na 800 μg/ml
  growth of the test bacterium: +
Escherichia coli GN 6299; T-1551 Na unlabelled column between 0.8 and 0.2 μg/ml
  growth of the test bacterium: +
Escherichia coli GN 6299; T-1551 Na unlabelled column between 3.1 and 0.8 μg/ml
  growth of the test bacterium: +
Escherichia coli GN 6299; [8]
  growth of the test bacterium: +
Escherichia coli GN 6299; [9]
  growth of the test bacterium: +
Escherichia coli GN 6299; [10]
  growth of the test bacterium: +
Escherichia coli GN 6299; [11]
  growth of the test bacterium: +
[4]; T-1551 Na 0.2 μg/ml
  growth of the test bacterium: +
[4]; T-1551 Na 0.8 μg/ml
  growth of the test bacterium: +
[4]; T-1551 Na 3.1 μg/ml
  growth of the test bacterium: +
[4]; T-1551 Na 12.5 μg/ml
  growth of the test bacterium: +
[4]; T-1551 Na 50 μg/ml
  growth of the test bacterium: +
[4]; T-1551 Na 200 μg/ml
  growth of the test bacterium: +
[4]; T-1551 Na 800 μg/ml
  growth of the test bacterium: -
[5]; T-1551 Na 3.1 μg/ml
  growth of the test bacterium: +
[5]; T-1551 Na 12.5 μg/ml
  growth of the test bacterium: +
[5]; T-1551 Na 50 μg/ml
  growth of the test bacterium: +
[5]; T-1551 Na 200 μg/ml
  growth of the test bacterium: +
[5]; T-1551 Na 800 μg/ml
  growth of the test bacterium: -
[5]; [8]
  growth of the test bacterium: +
[5]; [9]
  growth of the test bacterium: +
[5]; [10]
  growth of the test bacterium: +
[5]; [11]
  growth of the test bacterium: -
Escherichia coli TK-3 [6]
  MIC: > 800 µg/mL
[7]
  MIC: > 800 µg/mL
K. pneumoniae Y-4
  ED50 (protection effect): > 26.8 mg/mouse
K. pneumoniae Y-53
  ED50 (protection effect): > 10.0 mg/mouse
